Converted amounts (≈) assume the structure as drawn. *1 amine or outer side, *2 acyl side, *3 side chain or, on linkers, in order; H or OH if unused. Where a SMILES comes first, the peptide text is derived from it. Bridges are numbered along the chain shown (N, C = ends). [ ]: non-standard residue; d: D form. The star is where a group is joined. hTyr(3S-OH,4S-OH,3'-OSO3H) = N[C@H](C(=O)O)[C@H](O)[C@@H](O)c1ccc(O)c(OS(=O)(=O)O)c1; Orn(4R-OH,5R-OH) = O=C([C@H](C[C@@H](O)[C@@H](O)N[*:3])N[*:1])[*:2]; Pro(3S-OH,4S-Me) = C[C@H]1CN[C@H](C(=O)O)[C@H]1O; X1 = CCCCCOc1ccc(-c2cc(-c3ccc(C(=O)*)cc3)no2)cc1; Gln(3R-OH) = NC(=O)C[C@@H](O)[C@H](N)C(=O)O; Hyp = O=C(O)[C@@H]1C[C@@H](O)CN1
Tests used:
Type in all cases: functional
[1] = tested on: Saccharomyces cerevisiae; assay: Antimicrobial activity against Saccharomyces cerevisiae BY4742 containing Aspergillus fumigatus fks1delta453-649 hybrid after 24 hrs by broth microdilution assay; conditions: BY4742, 24 h
[2] = tested on: Saccharomyces cerevisiae; assay: Antimicrobial activity against Saccharomyces cerevisiae BY4742 containing Fusarium solani fks1617-649 with F639 mutant after 24 hrs by broth microdilution assay; conditions: BY4742, 24 h
[3] = tested on: Saccharomyces cerevisiae; assay: Antimicrobial activity against Saccharomyces cerevisiae BY4742 containing Fusarium solani fks1617-649 hybrid after 24 hrs by broth microdilution assay; conditions: BY4742, 24 h
[4] = tested on: Saccharomyces cerevisiae; assay: Antimicrobial activity against Saccharomyces cerevisiae BY4742 containing Aspergillus fumigatus fks1617-649 hybrid after 24 hrs by broth microdilution assay; conditions: BY4742, 24 h
[5] = tested on: Saccharomyces cerevisiae; assay: Antimicrobial activity against Saccharomyces cerevisiae BY4742 transfected with Scedosporium prolificans FSK1 gene sequence after 24 hrs by broth microdilution assay; conditions: BY4742, 24 h
[6] = tested on: Saccharomyces cerevisiae; assay: Antimicrobial activity against Saccharomyces cerevisiae BY4742 fks1-F639Y mutant after 24 hrs by broth microdilution assay; conditions: BY4742, 24 h
[7] = tested on: Saccharomyces cerevisiae; assay: Antimicrobial activity against Saccharomyces cerevisiae BY4742 fks1-F639F wild type after 24 hrs by broth microdilution assay; conditions: BY4742, 24 h
[8] = tested on: Saccharomyces cerevisiae; assay: Antimicrobial activity against Saccharomyces cerevisiae BY4742 fks1delta617-649::URA3 deletant after 24 hrs by broth microdilution assay; conditions: BY4742, 24 h
[9] = tested on: Nakaseomyces glabratus; assay: Antimicrobial activity against Candida glabrata containing fsk2-L588P/F639V mutant after 24 hrs by broth microdilution assay
[10] = tested on: Nakaseomyces glabratus; assay: Antimicrobial activity against Candida glabrata containing FSK2 after 24 hrs by broth microdilution assay
[11] = tested on: Saccharomyces cerevisiae; assay: Antimicrobial activity against Saccharomyces cerevisiae BY4742 containing Fusarium solani fks1-FS453-649 with F639 mutant after 24 hrs by broth microdilution assay; conditions: BY4742, 24 h
[12] = tested on: Saccharomyces cerevisiae; assay: Antimicrobial activity against Saccharomyces cerevisiae BY4742 containing Fusarium solani fks1-FS453-649 hybrid after 24 hrs by broth microdilution assay; conditions: BY4742, 24 h
[13] = tested on: Saccharomyces cerevisiae; assay: Antimicrobial activity against Saccharomyces cerevisiae BY4742 containing Candida glabrata fks1-CgR453-649 hybrid after 24 hrs by broth microdilution assay; conditions: BY4742, 24 h
[14] = tested on: Saccharomyces cerevisiae; assay: Antimicrobial activity against Saccharomyces cerevisiae BY4742 containing Candida glabrata fks1-CgS453-649 hybrid after 24 hrs by broth microdilution assay; conditions: BY4742, 24 h

Row | SMILES | MIC [1] [µg/mL] | MIC [2] [µg/mL] | MIC [3] [µg/mL] | MIC [4] [µg/mL] | MIC [5] [µg/mL] | MIC [6] [µg/mL] | MIC [7] [µg/mL] | MIC [8] [µg/mL] | MIC [9] [µg/mL] | MIC [10] [µg/mL] | MIC [11] [ng/mL] | MIC [12] [µg/mL] | MIC [13] [µg/mL] | MIC [14] [µg/mL]
1 | CC[C@H](C)C[C@H](C)CCCCCCCCC(=O)N[C@H]1C[C@@H](O)[C@@H](NCCN)NC(=O)[C@@H]2[C@@H](O)CCN2C(=O)[C@H]([C@H](O)CCN)NC(=O)[C@H]([C@H](O)[C@@H](O)c2ccc(O)cc2)NC(=O)[C@@H]2C[C@@H](O)CN2C(=O)[C@H]([C@@H](C)O)NC1=O [CASPOFUNGIN] | 0.002 (≈ 0.00183 µM) | 0.008 (≈ 0.00732 µM) | 0.25 (≈ 0.229 µM) | 0.008 (≈ 0.00732 µM) | 0.031 (≈ 0.0284 µM) | 0.5 (≈ 0.457 µM) | 0.031 (≈ 0.0284 µM) | 0.002 (≈ 0.00183 µM) | 0.5 (≈ 0.457 µM) | 0.062 (≈ 0.0567 µM) | 1 (≈ 0.000915 µM) | 0.008 (≈ 0.00732 µM) | 0.25 (≈ 0.229 µM) | 0.031 (≈ 0.0284 µM)
2 | CCCCCOc1ccc(-c2cc(-c3ccc(C(=O)N[C@H]4C[C@@H](O)[C@@H](O)NC(=O)[C@@H]5[C@@H](O)[C@@H](C)CN5C(=O)[C@H]([C@H](O)CC(N)=O)NC(=O)[C@H]([C@H](O)[C@@H](O)c5ccc(O)c(OS(=O)(=O)O)c5)NC(=O)[C@@H]5C[C@@H](O)CN5C(=O)[C@H]([C@@H](C)O)NC4=O)cc3)no2)cc1 [MICAFUNGIN] (X1-[Orn(4R-OH,5R-OH)]T[Hyp][hTyr(3S-OH,4S-OH,3'-OSO3H)][Gln(3R-OH)][Pro(3S-OH,4S-Me)]; lactam 1-C) | 0.062 (≈ 0.0488 µM) | 0.031 (≈ 0.0244 µM) | 0.25 (≈ 0.197 µM) | 0.031 (≈ 0.0244 µM) | 0.062 (≈ 0.0488 µM) | 0.5 (≈ 0.394 µM) | 0.062 (≈ 0.0488 µM) | 0.062 (≈ 0.0488 µM) | 0.062 (≈ 0.0488 µM) | 0.031 (≈ 0.0244 µM) | 8 (≈ 0.0063 µM) | 0.031 (≈ 0.0244 µM) | 0.062 (≈ 0.0488 µM) | 0.016 (≈ 0.0126 µM)

Source: ChEMBL document CHEMBL1629680, “Role for Fks1 in the intrinsic echinocandin resistance of Fusarium solani as evidenced by hybrid expression in Saccharomyces cerevisiae” (2009)
